# Laboratory results: patent US9932339B2, “Helquats with heteroaromatic substituents, preparation thereof, and use thereof as G-quadruplex stabilizers” (USTAV ORGANICKE CHEMIE A BIOCHEMIE AV CR, V.V.I., priority 2014, dated 2018)
# Test system: c-Myc27 oligonucleotide G-quadruplex
# Assay: ECD melting curve of c-Myc27 oligonucleotide G-quadruplex with ligands
# Assay type: binding
# Conditions: ECD at 263 nm; molar ratio oligonucleotide:ligand 1:1 (5 μmol l^−1 each); Li+-cacodylate buffer
# Protocol: ECD spectra were measured on J-815 spectrometer (Jasco, Japan). Measurement settings (Tab. 3), spectra saving and background subtraction was performed in a Spectra Manager software (Jasco, Japan).
# For measurement of the temperature dependencies the cuvettes in the cuvette compartment were placed in the Peltier module, the temperature was controlled by the Spectra Manager software. Melting curves were measured at a wavelength which corresponds to the maximum difference in signal intensity of ECD spectra of oligonucleotide at 25 and 95° C., as shown in FIG. 1. Before and after measuring the melting curves, ECD spectra in extreme temperatures were measured, in order to verify the stability of the studied system.
# Processing of the spectra was performed using Spectra Manager (Jasco, Japan). The resulting spectra were obtained from the measured sample spectrum after subtraction of background spectrum, which was spectrum of the solvent. Measuring of sample spectrum and background was conducted under identical conditions. ECD spectra are reported as ellipticity, labeled in the CD figures [mdeg], whose numerical value is associated with dimensionless circular dichroism ΔA (CDv=32980 ΔAv). This CD notations preserves conventions of the international journals in which articles from the field are published.
# Stock solution of […] was prepared from c-Myc27 oligonucleotide by dissolution in H2O. The cuvette of 1 mm thickness was filled with 7 μl of oligonucleotide solution and 133 μl of Li^+-cacodylate buffer. Oligonucleotide solution in the cuvette was overlayed with mineral oil to measure temperature dependencies without concentration changes due to evaporation of the solvent at higher temperatures.
# From stock solutions of the racemic ligands in DMSO at a concentration of […] solutions were prepared at a concentration of 140 μmol l^−1 by dissolving in H2O. Ligands were added to the solution of oligonucleotide under buffer/mineral oil interface using Hamilton microsyringe (5 μl of solution at a concentration of […]). The resulting molar ratio of oligonucleotide:ligand was 1:1.
# The cuvette filled with c-Myc27 oligonucleotide solution in Li^+-cacodylate buffer (cc-Myc27=5 μmol l^−1) was first heated for 5 minutes at 95° C., at this temperature ECD spectrum was measured. Then the sample was cooled to 25° C., allowed to stabilize for 10 min and then ECD spectrum was measured again. Then, the melting curve of ECD oligonucleotide at 263 nm was measured in the temperature range 25-95° C. and for verification of the stability of the sample spectra the spectra were measured again at 95 and 25° C. Under the oil layer ligand solution (cligand=5 μmol l^−1) was added to a solution of oligonucleotide, the sample was thoroughly mixed and ECD spectrum measured at 25° C., the melting curve was obtained and again control spectra were measured at 95 and 25° C.
# Decomposition of the G-quadruplex structure in the presence of ligands under influence of temperature was monitored at the wavelength corresponding to the maximum difference in signal intensities of ECD oligonucleotide/ligand at 25 and 95° C., i.e. at 263 nm. Thermal stability of G-quadruplex was monitored in the range of 25 to 95° C. and in a molar ratio of oligonucleotide:ligand=1:1. Example of influence of the studied ligand on the stability of G-quadruplex formed from c-Myc27 oligonucleotide is shown in FIG. 2.
# The degree of G-quadruplex stabilization was expressed as change of melting temperature caused by the presence of G-quadruplex ligands (ΔTm): ΔTm=Tm,oligonucleotide+ligand−Tm,oligonucleotide (1), • where Tm,oligonucleotide+ligand is melting temperature of molecular system comprising the oligonucleotide and the ligand and Tm,oligonucleotide, the melting temperature of the oligonucleotide itself. Tab. 4 summarizes the changes in melting temperatures of c-Myc27 oligonucleotide G-quadruplex in the presence of studied ligands.
smiles,measurement,value
"Cc1c(C)c2c(c3c1CC[n+]1ccc(/C=C/c4cccc5c4oc4ccccc45)cc1-3)-c1c3ccccc3cc[n+]1CC2 (racemic) [MJA-C13-8, (rac)-(E)-13-(2-(dibenzo[b,d]furan-4-yl)vinyl)-6,7-dimethyl-4,5,8,9-tetrahydroisoquinolino[1,2-a]pyrido[1,2-k][2,9]phenanthroline-3,10-diium trifluoromethanesulfonate]",ΔTm (° C.),6.8 °C
